Series [1] addresses Heat shock protein HSP 90-alpha (Homo sapiens, UniProt P07900).
Description: Inhibition of human Hsp90-alpha by fluorescence polarization assay
Series [2] has as its system SK-BR-3. In words: Degradation of HER2 in human SKBR3 cells. In kind it is functional, cell-based.
The test system of series [3] is HCT-116. The experiment in a line: Antiproliferation activity against human HCT116 cells.
Series [4] is described as follows: Aqueous solubility at pH 7.4. In kind it is physicochemical.
The subject of series [5] is HCT-116. In words: Antiproliferation activity against human HCT116 cells. In kind it is functional, cell-based.
For series [6], the target named is Serine/threonine-protein kinase B-raf (Homo sapiens, UniProt P15056). The experiment in a line: Inhibition of B-Raf.
In series [7] the test system is K562. The experiment in a line: Downregulation of Bcr-Abl in human K562 cells. In kind it is functional, cell-based.
Series [8] concerns the target Phosphatidylinositol 4,5-bisphosphate 3-kinase catalytic subunit alpha isoform (Homo sapiens, UniProt P42336). In words: Inhibition of P13K alpha.
Series [9] concerns SK-BR-3. The experiment in a line: Antiproliferation activity against human SKBR3 cells. It counts as functional, cell-based.
The next series deals with Activin receptor type-2B (Homo sapiens, UniProt Q13705). In words: Inhibition of ActR2B.
Series [10] has as its system HCT-116. In words: Antiproliferation activity against human HCT116 cells in presence of geldanamycin. It counts as functional, cell-based.
Series [11] is described as follows: Antiproliferation activity against human H157 cells. In kind it is functional, cell-based. The conditions noted are these: NCI-H157.
The target in series [12] is T1, Inhibitor of nuclear factor kappa-B kinase subunit beta (Homo sapiens, UniProt O14920).
T1 sequence (O14920 whole entry): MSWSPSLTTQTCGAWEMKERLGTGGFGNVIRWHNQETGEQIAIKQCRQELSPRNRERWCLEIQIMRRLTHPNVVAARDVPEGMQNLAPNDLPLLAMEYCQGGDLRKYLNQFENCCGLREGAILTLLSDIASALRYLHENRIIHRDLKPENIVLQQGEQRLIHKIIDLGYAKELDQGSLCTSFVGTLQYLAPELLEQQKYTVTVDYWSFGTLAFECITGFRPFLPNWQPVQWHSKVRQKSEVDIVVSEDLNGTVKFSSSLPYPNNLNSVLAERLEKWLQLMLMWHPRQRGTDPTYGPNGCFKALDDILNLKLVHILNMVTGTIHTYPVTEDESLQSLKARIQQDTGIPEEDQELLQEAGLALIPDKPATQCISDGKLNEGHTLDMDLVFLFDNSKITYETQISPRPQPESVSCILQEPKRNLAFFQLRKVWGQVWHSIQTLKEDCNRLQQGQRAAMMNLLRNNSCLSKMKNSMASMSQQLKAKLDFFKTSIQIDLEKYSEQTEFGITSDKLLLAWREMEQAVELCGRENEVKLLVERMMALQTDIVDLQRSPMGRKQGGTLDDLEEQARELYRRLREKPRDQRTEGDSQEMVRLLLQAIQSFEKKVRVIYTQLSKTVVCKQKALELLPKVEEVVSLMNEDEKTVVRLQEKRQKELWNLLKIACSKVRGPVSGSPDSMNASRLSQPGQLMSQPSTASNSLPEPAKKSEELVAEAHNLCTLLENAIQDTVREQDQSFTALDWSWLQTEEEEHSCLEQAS
In words: Inhibition of IKK2.

Series [13] addresses T2, Protein kinase C epsilon type (Homo sapiens, UniProt Q02156).
T2 sequence (Q02156 whole entry): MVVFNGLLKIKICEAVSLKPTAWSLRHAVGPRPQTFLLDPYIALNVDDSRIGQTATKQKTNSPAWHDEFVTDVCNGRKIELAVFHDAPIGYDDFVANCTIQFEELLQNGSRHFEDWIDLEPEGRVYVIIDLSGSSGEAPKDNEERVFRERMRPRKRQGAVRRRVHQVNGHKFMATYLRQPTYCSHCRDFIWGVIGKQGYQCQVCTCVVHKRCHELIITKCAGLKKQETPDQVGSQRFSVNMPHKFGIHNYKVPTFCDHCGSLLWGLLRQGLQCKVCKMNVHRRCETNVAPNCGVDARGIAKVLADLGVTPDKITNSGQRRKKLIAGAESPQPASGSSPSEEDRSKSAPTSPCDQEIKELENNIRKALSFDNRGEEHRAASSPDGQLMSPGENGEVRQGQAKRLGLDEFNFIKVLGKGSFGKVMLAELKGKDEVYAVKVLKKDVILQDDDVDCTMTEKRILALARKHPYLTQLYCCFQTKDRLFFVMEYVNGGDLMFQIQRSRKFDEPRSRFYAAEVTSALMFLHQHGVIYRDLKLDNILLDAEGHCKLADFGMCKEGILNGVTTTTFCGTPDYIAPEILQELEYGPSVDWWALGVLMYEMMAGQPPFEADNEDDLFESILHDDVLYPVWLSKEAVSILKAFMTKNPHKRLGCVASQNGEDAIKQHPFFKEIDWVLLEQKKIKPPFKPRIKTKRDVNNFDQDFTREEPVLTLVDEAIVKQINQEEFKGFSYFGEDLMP
In words: Inhibition of PKC epsilon.

For another series, the system named is DU-145. The experiment in a line: Antiproliferation activity against human DU145 cells. It counts as functional, cell-based.
Series [14] relates to LNCaP. In words: Androgen receptor degradation in human LnCAP cells. In kind it is functional, cell-based.
In series [15] the test system is LNCaP. In words: Antiproliferation activity against human LnCap cells. It counts as functional, cell-based.
Series [16] has as its target MAP kinase-activated protein kinase 2 (Homo sapiens, UniProt P49137). The experiment in a line: Inhibition of MK2.
For series [17], the target named is Protein kinase C theta type (Homo sapiens, UniProt Q04759). In words: Inhibition of PKC theta.
The test system of series [18] is K562. The experiment in a line: Degradation of actin in human K562 cells. In kind it is functional, cell-based.
Series [19] addresses Serine/threonine-protein kinase mTOR (Homo sapiens, UniProt P42345). The experiment in a line: Inhibition of mTOR.
For series [20], the system named is K562. The experiment in a line: Upregulation of Hsp70 in K562 cells. In kind it is functional, cell-based. The settings on record: Homo sapiens.

Values after ≈ are worked out from the molar mass of the structure shown. Active and inactive are the calls of the source. The calls are words filed in the database; no cut-off is given here. A value given as a limit tells only on which side of the number the result lay.

This is an account of results in ChEMBL document CHEMBL1140740, “Discovery of benzisoxazoles as potent inhibitors of chaperone heat shock protein 90” (J Med Chem, 2008).

In general, IC50 refers to the concentration that inhibits the measured activity by half. Usually solubility stands for the dissolved amount per volume that the medium holds. A high value points to a readily soluble substance.

Activin receptor type-2B, sequence (Q13705 whole entry): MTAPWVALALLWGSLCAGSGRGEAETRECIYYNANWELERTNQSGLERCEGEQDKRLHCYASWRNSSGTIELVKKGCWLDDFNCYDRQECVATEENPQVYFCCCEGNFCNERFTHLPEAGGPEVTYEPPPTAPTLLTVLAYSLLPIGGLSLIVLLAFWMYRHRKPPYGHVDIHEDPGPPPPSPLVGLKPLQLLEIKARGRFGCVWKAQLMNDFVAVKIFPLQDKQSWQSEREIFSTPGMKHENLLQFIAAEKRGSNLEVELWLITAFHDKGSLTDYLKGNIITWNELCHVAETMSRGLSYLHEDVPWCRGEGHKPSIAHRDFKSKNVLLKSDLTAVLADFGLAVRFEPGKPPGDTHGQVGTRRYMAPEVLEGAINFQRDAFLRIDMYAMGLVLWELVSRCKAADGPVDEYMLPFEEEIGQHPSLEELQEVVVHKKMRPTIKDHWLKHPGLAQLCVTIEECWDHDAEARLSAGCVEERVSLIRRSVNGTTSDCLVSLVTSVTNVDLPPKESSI
Protein kinase C theta type, sequence (Q04759 whole entry): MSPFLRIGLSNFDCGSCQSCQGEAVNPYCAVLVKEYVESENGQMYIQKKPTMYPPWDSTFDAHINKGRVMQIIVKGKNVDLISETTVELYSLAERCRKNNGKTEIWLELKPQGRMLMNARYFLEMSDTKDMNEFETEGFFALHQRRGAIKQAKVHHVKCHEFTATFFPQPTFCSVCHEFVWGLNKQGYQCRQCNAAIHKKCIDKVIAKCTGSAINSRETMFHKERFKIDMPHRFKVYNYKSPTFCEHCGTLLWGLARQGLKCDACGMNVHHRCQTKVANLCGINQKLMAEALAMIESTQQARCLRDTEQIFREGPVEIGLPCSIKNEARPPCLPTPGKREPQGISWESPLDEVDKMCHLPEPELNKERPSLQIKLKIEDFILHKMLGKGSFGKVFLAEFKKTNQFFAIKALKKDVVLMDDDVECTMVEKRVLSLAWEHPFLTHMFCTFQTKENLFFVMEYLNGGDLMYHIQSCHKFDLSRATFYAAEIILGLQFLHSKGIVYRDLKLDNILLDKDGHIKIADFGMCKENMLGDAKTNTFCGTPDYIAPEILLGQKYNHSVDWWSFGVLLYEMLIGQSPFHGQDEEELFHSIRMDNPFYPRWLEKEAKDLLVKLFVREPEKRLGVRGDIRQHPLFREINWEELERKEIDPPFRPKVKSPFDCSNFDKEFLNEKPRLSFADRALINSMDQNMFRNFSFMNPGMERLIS
Serine/threonine-protein kinase B-raf, sequence (P15056 whole entry): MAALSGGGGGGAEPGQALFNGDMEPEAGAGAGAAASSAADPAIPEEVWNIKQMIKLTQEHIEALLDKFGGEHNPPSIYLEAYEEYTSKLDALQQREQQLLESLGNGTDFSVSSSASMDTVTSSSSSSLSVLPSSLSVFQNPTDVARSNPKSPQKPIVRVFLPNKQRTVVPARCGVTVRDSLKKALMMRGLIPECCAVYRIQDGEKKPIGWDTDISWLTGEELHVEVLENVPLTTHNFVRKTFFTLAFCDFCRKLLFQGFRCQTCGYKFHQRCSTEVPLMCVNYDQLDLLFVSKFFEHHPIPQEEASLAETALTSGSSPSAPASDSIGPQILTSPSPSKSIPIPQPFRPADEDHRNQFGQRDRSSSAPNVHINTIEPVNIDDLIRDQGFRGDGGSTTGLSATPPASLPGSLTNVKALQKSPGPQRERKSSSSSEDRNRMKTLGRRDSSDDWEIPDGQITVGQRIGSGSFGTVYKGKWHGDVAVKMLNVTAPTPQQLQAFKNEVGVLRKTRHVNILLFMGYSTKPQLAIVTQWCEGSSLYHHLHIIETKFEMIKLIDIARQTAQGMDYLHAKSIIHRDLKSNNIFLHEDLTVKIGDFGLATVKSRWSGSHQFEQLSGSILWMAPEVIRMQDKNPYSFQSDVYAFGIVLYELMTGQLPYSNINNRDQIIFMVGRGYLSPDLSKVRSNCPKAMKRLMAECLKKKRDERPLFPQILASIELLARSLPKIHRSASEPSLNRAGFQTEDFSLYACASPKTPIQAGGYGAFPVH
MAP kinase-activated protein kinase 2, sequence (P49137 whole entry): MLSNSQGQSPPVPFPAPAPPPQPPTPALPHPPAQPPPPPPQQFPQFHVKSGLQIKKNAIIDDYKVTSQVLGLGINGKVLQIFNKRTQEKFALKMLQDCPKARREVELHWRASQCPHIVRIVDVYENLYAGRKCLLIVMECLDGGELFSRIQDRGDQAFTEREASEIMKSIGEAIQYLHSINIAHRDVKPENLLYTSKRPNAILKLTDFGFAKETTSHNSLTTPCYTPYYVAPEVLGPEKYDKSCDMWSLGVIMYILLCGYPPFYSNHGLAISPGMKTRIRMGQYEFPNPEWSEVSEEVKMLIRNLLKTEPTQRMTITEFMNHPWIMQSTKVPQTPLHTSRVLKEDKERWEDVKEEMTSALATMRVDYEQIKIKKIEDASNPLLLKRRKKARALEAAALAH
Phosphatidylinositol 4,5-bisphosphate 3-kinase catalytic subunit alpha isoform, sequence (P42336 whole entry, canonical isoform): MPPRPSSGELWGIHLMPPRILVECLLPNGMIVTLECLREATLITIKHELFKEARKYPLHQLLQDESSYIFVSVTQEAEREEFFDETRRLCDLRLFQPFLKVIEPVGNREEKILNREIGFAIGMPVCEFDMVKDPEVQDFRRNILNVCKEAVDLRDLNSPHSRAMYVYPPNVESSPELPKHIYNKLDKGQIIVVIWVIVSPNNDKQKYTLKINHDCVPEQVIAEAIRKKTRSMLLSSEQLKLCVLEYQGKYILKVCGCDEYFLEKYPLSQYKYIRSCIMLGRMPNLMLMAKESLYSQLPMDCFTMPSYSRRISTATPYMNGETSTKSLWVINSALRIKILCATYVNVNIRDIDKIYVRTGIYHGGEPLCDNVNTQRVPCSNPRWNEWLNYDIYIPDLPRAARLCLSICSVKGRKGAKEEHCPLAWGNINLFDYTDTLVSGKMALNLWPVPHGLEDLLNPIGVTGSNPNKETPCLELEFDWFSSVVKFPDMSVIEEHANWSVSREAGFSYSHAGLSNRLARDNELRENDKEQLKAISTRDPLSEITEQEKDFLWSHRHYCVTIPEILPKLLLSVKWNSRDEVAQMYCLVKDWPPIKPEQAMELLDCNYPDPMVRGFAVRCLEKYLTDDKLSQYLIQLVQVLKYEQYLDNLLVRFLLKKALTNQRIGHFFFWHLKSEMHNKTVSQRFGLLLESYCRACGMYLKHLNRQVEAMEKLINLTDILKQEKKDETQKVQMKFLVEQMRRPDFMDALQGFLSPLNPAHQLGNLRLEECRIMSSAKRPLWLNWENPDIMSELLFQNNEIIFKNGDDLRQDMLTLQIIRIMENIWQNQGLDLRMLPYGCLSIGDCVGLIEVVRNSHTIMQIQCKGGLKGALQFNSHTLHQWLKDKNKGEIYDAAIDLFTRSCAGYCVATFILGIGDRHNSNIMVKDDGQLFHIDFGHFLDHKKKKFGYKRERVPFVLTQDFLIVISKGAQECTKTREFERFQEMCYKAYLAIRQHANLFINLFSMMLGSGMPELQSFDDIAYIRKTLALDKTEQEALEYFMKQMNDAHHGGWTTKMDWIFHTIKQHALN

As to `Oc1ccc(-c2noc3cc(O)ccc23)c(O)c1`, the 50% inhibitory concentration (IC50) in [1] was found to be 15.2 µM.
The same measure, in the same setting: then `Oc1ccc2c(-c3cc(Cl)c(O)cc3O)noc2c1`, with 0.06 µM.
The same measure, in the same setting: then `COc1cc(OC)c(-c2noc3ccc(NCCN4CCOCC4)cc23)cc1Cl`, with greater than 20 µM.
In the case of `Oc1ccc2c(-c3cc(Br)c(O)cc3O)noc2c1`, the IC50 with SK-BR-3 [2] and with HCT-116 [3] was no less than 20 µM each time. Also, in series [4], the concentration in solution (solubility) was 4 µg/mL (≈ 12.4 µM).
With `CN1CCN(c2ccc3onc(-c4cc(Cl)c(O)cc4O)c3c2)CC1`, the figures for the IC50 (in series [1]; in the series with HCT-116 [5]) were 0.8 µM and 9.4 µM, respectively.
Regarding `Oc1cc(O)c(-c2noc3ccc(NCCN4CCOCC4)cc23)cc1Cl`, the IC50 with SK-BR-3 [2] is 0.33 µM; in series [6], greater than 20 µM; in [8], greater than 20 µM; with SK-BR-3 [9] it was 0.37 µM; against Activin receptor type-2B it was greater than 20 µM; in the series on HCT-116 [10], 0.05 µM. For the same compound, the IC50 was 0.23 µM in [11]; greater than 20 µM in series [12]; greater than 20 µM in series [13]; 0.29 µM with DU-145; 0.28 µM in the series on HCT-116 [5]; 0.33 µM in the series on LNCaP [14]. The IC50 with LNCaP [15] was 0.17 µM; in series [16], greater than 20 µM; in [17], greater than 20 µM; in series [19] it was greater than 20 µM. Further, the outcome with K562 [7] and in the series with K562 [20] was Active. Besides, in the series with K562 [18], the outcome was inactive.
Take `Oc1cc(O)c(-c2noc3ccc(NCCN4CCOCC4)cc23)cc1Br`: the IC50 in series [1] worked out at 0.04 µM.
On the same count and under the same terms, under `COc1ccc2c(-c3cc(Cl)c(OC)cc3OC)noc2c1` stands greater than 20 µM.
